Results from publication PMC7600403, “Development of an Oil-in-Water Self-Emulsifying Microemulsion for Cutaneous Delivery of Rose Bengal: Investigation of Anti-Melanoma Properties” (Pharmaceutics, 2020).

Tests used:
WM1366 [1] = test: MTT cell viability assay of SEMEs and excipients (60 min); type: cell-based, human; conditions: WM1366, 60 min incubation; mean (95% CI), n = 5; >Max Conc. = not reaching the sensitive range
Experimental: (§1) Human melanoma cell lines (WM164, WM1366, and D24), spontaneously immortalized normal human keratinocytes (HaCaT), and primary skin fibroblast cells were kindly provided by A/Prof. Helmut Schaider’s laboratory (University of Queensland Diamantina Institute). The cells were grown in RPMI medium (+ L-glutamine) supplemented with 5% (v/v) FBS and 2% penicillin/streptomycin—except for the fibroblast cells which were cultured in DMEM. Cells were routinely grown in culture flasks and maintained at 37 °C in a humidified 5% CO2 atmosphere. The culture media was replaced with fresh media every two to three days. Cells were detached using trypsin–EDTA when they reached approximately 80% confluence to seed or subculture. A low passage number (6–12) of primary fibroblast was used during the experiments, and regular microbial contamination testing was done.
(§2) To exclude any toxic effect of the blank SEMEs and their constituents on human skin cells, an MTT cell viability test was performed based on the original protocol. In this assay, the yellow tetrazolium salt MTT is reduced to insoluble purple formazan crystals by metabolically live cells.
(§3) After 60 min incubation of treated cells, the excipient-containing medium was removed, and 100 μL of MTT in PBS (5 mg/mL) diluted 1:10 in medium was then added. Plates were further incubated in the dark for 2–3 h, after which time the wells were emptied and the purple formazan was dissolved by addition of 200 μL of DMSO to each well. Plates were located in a shaker for 5 min at room temperature and the absorbance of the solutions in the wells was measured at 570 nm using a microplate reader (Multiskan™ FC Microplate Photometer). The impact of each treatment was determined as the percentage of reduced tetrazolium salt against the control cells (untreated cells with medium only).
(§4) The cytotoxicity at each excipient concentration was expressed as a percentage of viability against the untreated control wells (the mean optical density of untreated cells was set at 100% viability) to construct a dose-dependent cytotoxicity plot.
(§5) The percentage viability was calculated as follows (Equation (1)):(1) % Viability= Mean absorbance of treated wells/Mean absorbance of control wellno excipients ×100.
(§6) The cytotoxicity of the excipients and formulations (treatments) was expressed as an IC50 value (concentration causing 50% death of the cell population). The IC50 value for each treatment concentration was calculated from the dose–response curves plotted in GraphPad Prism 7 (GraphPad Software Inc. California, USA) with log (treatment concentration) on the x-axis and percentage survival on the y-axis. The IC50 value was obtained by fitting the dose–response curve with a nonlinear regression curve (Dose-response-inhibition) on GraphPad Prism 7. […] All IC50 values were expressed as v/v (%).

WM164 [2] = test: as above; type: cell-based, human; conditions: WM164, 60 min incubation; mean (95% CI), n = 5; >Max Conc. = not reaching the sensitive range for the applied concentrations
Experimental: as §1, §2, §3, §4, §5, §6

HaCaT [3] = test: as above; type: cell-based, human; conditions: 60 min incubation, mean (95% CI), n = 5, >Max Conc. = not reaching the sensitive range
Experimental: as §1, §2, §3, §4, §5, §6

WM1366 [4] = test: MTT assay, inhibitory effect of RB in different delivery systems; type: cell-based, human
Experimental: as §1
(§7) For the 72-h MTT assay, cells were seeded into flat bottom 96-well cell culture plates in 100 μL of complete culture medium at the initial density of […]. Cells were incubated under 5% CO2 at 37 °C for 24 h for adhering to the wells and medium was then replaced with 100 μL of fresh medium containing treatment solution at the required final concentration. Each concentration was tested in 3 replicates in 3 independent studies and control cells were exposed to the culture medium only.
(§8) The MTT cell viability assay was also used as a proxy measure for cell proliferation. Cells were plated in 96-well culture plates, at a density of 8000 cells per well in 100 μL of medium and incubated for 24 h. Treatment solutions of active drug in milli-Q® water or incorporating in SEME were prepared in cell culture medium immediately before use and added in a volume of 100 μL at desired final concentrations. After a specific period, cell viability was evaluated by MTT assay. All experiments were performed in triplicate.
as §6

[5] = system: primary skin fibroblast cells; test: as above; type: cell-based, human
Experimental: as §1, §7, §8, §6

WM164 [6] = test: as above; type: cell-based, human
Experimental: as §1, §7, §8, §6

HaCaT [7] = test: as above; type: cell-based, human
Experimental: as §1, §7, §8, §6

D24 [8] = test: as above; type: cell-based, human
Experimental: as §1, §7, §8, §6

[9] = design: method as in PubChem; conditions: ref PubChem; cited from earlier work
WM1366 [10] = test: Cell cycle analysis by flow cytometry (PI staining, sub G0G1); type: cell-based, human; conditions: WM1366, 50 µM RB, 24-h treatment; untreated 0.89
Experimental: (§9) Apoptotic cells were detected using Propidium Iodide (PI) staining of treated cells followed by flow cytometry to detect the sub-G1 peak. It has been reported that small segments of DNA caused by DNA fragmentation can be eluted following incubation in a hypotonic phosphate-citrate buffer. When stained with a quantitative DNA binding dye such as PI, cells that have lost DNA will take up less stain and will appear to the left of the G1 peak.
(§10) Briefly, melanoma cells were cultured overnight in a 6-well plate to subconfluence and treated with RB (50 µM) for 24 h. Floating and adherent cells were harvested by a trypsin-based method and fixed by ice cold 70% ethanol. Cells were incubated at 4 °C for at least 24 h in the dark and stained using 70 μM Propidium Iodide in 500 µl of a 38-mM hypotonic tri-sodium citrate buffer supplemented with 5 μg/mL RNase A before flow cytometric analysis using a FACScan. […]
(§11) 6. Cell Cycle Analysis by Flow Cytometry
(§12) After determining that RB decreased cell viability of human skin melanoma cells in a dose-dependent manner, the mechanism of cell death was investigated by flow cytometry. As RB-induced cell death was evident upon exposure to concentrations >50 μM, the cells were treated with 50-μM RB in water, SEME+PG and SEME-PG for 24 h for cell cycle analysis. […]
(§13) increases in apoptotic cell populations when cells were treated with RB-loaded SEMEs compared to […]
(§14) selective cell death mechanism could be a key for an effective antimelanoma drug.
(§15) Figure S7. Cell cycle histograms after RB treatment. RB induces apoptosis in melanoma cells. Flow cytometry histograms of apoptosis assays by the PI method. Cells were treated with 50 μM of RB incorporated in different delivery systems for 24 h. The SubG0G1 region (shown by asterisks) indicates the presence of apoptotic cells induced in melanoma cells treated with RB incorporated in SEMEs.
(§16) The percentages of apoptotic cell populations in cancerous and non-cancerous cells are shown in […]
(§17) Table 4 of the manuscript. […]
(§18) with RB loaded in a SEME containing PG.

WM164 [11] = test: as above; type: cell-based, human; conditions: WM164, 50 µM RB, 24-h treatment; untreated 3.94
Experimental: as §9, §10, §11, §12, §13, §14, §15, §16, §17, §18

HaCaT [12] = test: as above; type: cell-based, human; conditions: 50 µM RB, 24-h treatment, untreated 1.07
Experimental: as §9, §10, §11, §12, §13, §14, §15, §16, §17, §18

Fibroblast = test: as above; type: cell-based, human; conditions: 50 µM RB, 24-h treatment, untreated 0.00
Experimental: as §9, §10, §11, §12, §13, §14, §15, §16, §17, §18

D24 [13] = test: as above; type: cell-based, human; conditions: D24, 50 µM RB, 24-h treatment; untreated 2.54
Experimental: as §9, §10, §11, §12, §13, §14, §15, §16, §17, §18

[14] = system: WM164, WM1366, D24, HaCaT and fibroblast cells; test: MTT cell viability assay of excipients, all tested cell lines together; type: cell-based, human; conditions: 60 min MTT; maximum concentration used 10 (v/v %)
Experimental: To exclude any toxic effect of the blank SEMEs and their constituents on human skin cells, an MTT cell viability test was performed based on the original protocol. In this assay, the yellow tetrazolium salt MTT is reduced to insoluble purple formazan crystals by metabolically live cells. After 60 min incubation of treated cells, the excipient-containing medium was removed, and 100 μL of MTT in PBS (5 mg/mL) diluted 1:10 in medium was then added. Plates were further incubated in the dark for 2–3 h, after which time the wells were emptied and the purple formazan was dissolved by addition of 200 μL of DMSO to each well. Plates were located in a shaker for 5 min at room temperature and the absorbance of the solutions in the wells was measured at 570 nm using a microplate reader (Multiskan™ FC Microplate Photometer). The impact of each treatment was determined as the percentage of reduced tetrazolium salt against the control cells (untreated cells with medium only). […] The IC50 value for each treatment concentration was calculated from the dose–response curves plotted in GraphPad Prism 7 (GraphPad Software Inc. California, USA) with log (treatment concentration) on the x-axis and percentage survival on the y-axis. […] All IC50 values were expressed as v/v (%).

[15] = system: primary skin fibroblast cells; test: MTT cell viability assay of SEMEs and excipients (60 min); type: cell-based, human; conditions: 60 min incubation, mean (95% CI), n = 5, >Max Conc. = not reaching the sensitive range
Experimental: as §1, §2, §3, §4, §5, §6

D24 [16] = test: as above; type: cell-based, human; conditions: D24, 60 min incubation; mean (95% CI), n = 5; >Max Conc. = not reaching the sensitive range
Experimental: as §1, §2, §3, §4, §5, §6

For `CC(O)CO` (centres unmarked) [PG, propylene glycol], which IC50 (WM1366 [1]) is on record?
The IC50 was “>Max Conc”.

And the IC50 (WM164 [2])?
Its IC50 is “>Max Conc”.

And the IC50 (HaCaT [3])?
Its IC50 is “>Max Conc”.

For `O=C([O-])c1c(Cl)c(Cl)c(Cl)c(Cl)c1-c1c2cc(I)c(=O)c(I)c-2oc2c(I)c([O-])c(I)cc12.[Na+].[Na+]` [RB, 4,5,6,7-tetrachloro-2, 4′, 5′, 7--tetraiodofluorescein disodium salt], which IC50 (WM1366 [4]; RB and encapsulated RB, WM1366, 48 h incubation, concentration of RB, mean (95% CI), n = minimum of 4, read-out: IC50) is on record?
The IC50 was 98.9 µM.

And the IC50 (WM1366 [4]; RB aqueous solution, WM1366, 24 h)?
The IC50 was “>Max Conc”.

And the IC50 (WM1366 [4]; RB aqueous solution, WM1366, 48 h (Table 2), read-out: IC50)?
Its IC50 is 110 µM.

And the IC50 (WM1366 [4]; RB aqueous solution, WM1366, 72 h, read-out: IC50)?
The IC50 was about 114 µM.

And the IC50 ([5]; RB and encapsulated RB, 48 h incubation, concentration of RB, mean (95% CI), n = minimum of 4)?
The IC50 was 188 µM.

What about the IC50 ([5]; RB aqueous solution, 24 h) of the same molecule?
Its IC50 is 238 µM.

And the IC50 ([5]; RB aqueous solution, 48 h (Table 2))?
The IC50 was 459 µM.

And the IC50 ([5]; RB aqueous solution, 72 h)?
The IC50 was 108 µM.

What about the IC50 (WM164 [6]; RB and encapsulated RB, WM164, 48 h incubation, concentration of RB, mean (95% CI), n = minimum of 4, vehicle concentration constant) of the same molecule?
The IC50 was 103 µM.

And the IC50 (WM164 [6]; RB aqueous solution, WM164, 24 h)?
Its IC50 is 112 µM.

What about the IC50 (WM164 [6]; RB aqueous solution, WM164, 48 h (Table 2)) of the same molecule?
Its IC50 is 107 µM.

What about the IC50 (WM164 [6]; RB aqueous solution, WM164, 72 h) of the same molecule?
The IC50 was 109 µM.

What about the IC50 (HaCaT [7]; RB and encapsulated RB, 48 h incubation, concentration of RB, mean (95% CI), n = minimum of 4, read-out: IC50) of the same molecule?
Its IC50 is 153 µM.

And the IC50 (HaCaT [7]; RB aqueous solution, 24 h, read-out: IC50)?
Its IC50 is 2250 µM.

And the IC50 (HaCaT [7]; RB aqueous solution, 48 h (Table 2), read-out: IC50)?
The IC50 was 221 µM.

What about the IC50 (HaCaT [7]; RB aqueous solution, 72 h) of the same molecule?
The IC50 was “>Max Conc”.

What about the IC50 (D24 [8]; RB and encapsulated RB, D24, 48 h incubation, concentration of RB, mean (95% CI), n = minimum of 4) of the same molecule?
The IC50 was 45.6 µM.

What about the IC50 (D24 [8]; RB aqueous solution, D24, 24 h) of the same molecule?
Its IC50 is 131 µM.

And the IC50 (D24 [8]; RB aqueous solution, D24, 48 h (Table 2))?
Its IC50 is 70 µM.

And the IC50 (D24 [8]; RB aqueous solution, D24, 72 h)?
The IC50 was 27.3 µM.

What about the “log P” value [9] of the same molecule?
The value was 7.6.

And the “Apoptotic Cells % (Sub G0G1)” value (WM1366 [10])?
The value was 2.29%.

And the “Apoptotic Cells % (Sub G0G1)” value (WM164 [11])?
The value was 6.69%.

And the “Apoptotic Cells % (Sub G0G1)” value (HaCaT [12])?
Its value is 1.15%.

And the “Apoptotic Cells % (Sub G0G1)” value (Fibroblast)?
Its value is 0.99%.

What about the “Apoptotic Cells % (Sub G0G1)” value (D24 [13]) of the same molecule?
The value was 2.66%.

For `CCOCCOCCO` [Transcutol®, diethylene glycol monoethyl ether], which “IC50, range over all the cell lines” value [14] is on record?
The value was ≥ 4.55 v/v (%).

And the IC50 (WM1366 [1])?
The IC50 was “>Max Conc”.

What about the IC50 [15] of the same molecule?
The IC50 was “>Max Conc”.

And the IC50 (WM164 [2])?
Its IC50 is ~5.6 (very wide) v/v %.

What about the IC50 (HaCaT [3]) of the same molecule?
Its IC50 is 5.75 (very wide) v/v %.

What about the IC50 (D24 [16]) of the same molecule?
Its IC50 is 4.55 (3.1-8.2) v/v %.
